The source of these data is article PMC7311425, “DREAM-in-CDM Approach and Identification of a New Generation of Anti-inflammatory Drugs Targeting mPGES-1” (Scientific Reports, 2020).

Several values for one entry are separate records, joined by “and”; a condition that tells them apart may be missing. Identical values can stand only once. Entries after “also recorded” stand apart in the source; their conditions may differ. Like-named read-outs stand apart in the source and are kept apart here.

In series [1] the target is T1, human mPGES-1 (Homo sapiens, UniProt O14684).
T1 construct: made in house
T1 sequence (O14684 1-152): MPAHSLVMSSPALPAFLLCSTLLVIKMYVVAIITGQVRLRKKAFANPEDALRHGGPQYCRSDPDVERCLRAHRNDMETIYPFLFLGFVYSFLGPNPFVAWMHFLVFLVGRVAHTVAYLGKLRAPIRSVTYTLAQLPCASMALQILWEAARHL
Briefly: in vitro inhibitory activity against human mPGES-1 (PGE2 ELISA assay). Format: biochemical. The note with it: for inhibition at 10 µM: read-out: Inhibition (%) at 10 µM; for IC50: human mPGES-1. How it is done:
The above computational predictions were followed by in vitro activity assays for their actual inhibitory activity against human mPGES-1 using an ELISA assay described in our previous reports[32]–[34]. […] Specifically, 15 FDA-approved drugs (see Fig. S1 of the Supporting Information for the molecular structures) were assayed for their inhibitory activity against human mPGES-1.
(§1) The protocol for the protein preparation and in vitro activity assays were the same as described previously[51]–[54]. The enzyme activity assays were performed on ice in 1.5 ml microfuge tubes by using the expressed human or mouse mPGES-1. The reaction mixture contained: 0.2 M Na2HPO4/NaH2PO4, pH 7.2, 10 µL; 0.1 M GSH, 2.5 µL; diluted microsomal enzyme (80 µg/mL), 1 µL; PGH2 (0.31 mM in DMF), 5 µL; 1 µL inhibitor; and H2O in a final reaction volume of 100 µL. PGH2 was stored in dry ice and used to initiate the reaction. Compounds were incubated with the enzyme for 15 min at room temperature before the addition of cold PGH2 ([…]) to initiate the enzyme reaction. After 30 s, 10 µL of SnCl2 (40 mg/mL) in ethanol was added to stop the reaction. The non-enzymatic conversion of PGH2 to PGE2 was performed in the same buffer devoid of enzyme. The reaction mixture was placed on ice until PGE2 production was determined by the PGE2 enzyme immunoassay as described earlier. IC50 values of the inhibitors were calculated by using the GraphPad Prism 7.
For orientation: In an ELISA, binding on a coated surface is turned into a signal by an enzyme label.

The conditions of series [2]: human, read-out: Cmax (µM) in plasma, cited from earlier work.
The test system of another series is air-pouch PGE2 level. Briefly: mouse air-pouch model of inflammation (carrageenan), air-pouch PGE2 by ELISA. Format: in vivo. How it is done: The air-pouch fluid collected from mice were analyzed by ELISA assay for the PGE2 concentrations. GraphPad Prism 7 software (GraphPad Software, La Jolla, CA) was used to perform the one-way analysis of variance (ANOVA) with post hoc tests.
All the animal experiments were conducted in our animal laboratories in the University of Kentucky’s Division of Laboratory Animal Resources (DLAR) facility (PHS assurance number A3336-01; USDA number 61-R-0002; AAALAC, Intl. Unit # 13) following the guidelines and regulations of the AAALAC and National Institutes of Health (NIH). The animal procedure used in this project was approved by the University of Kentucky’s Institutional Animal Care and Use Committee (IACUC). The air-pouch model of inflammation[23],[55] is widely used for determining the in vivo effectiveness of inhibitors of prostaglandin synthesis. Air pouches were produced by duplicate injections of 3 mL of sterile air under the skin on the back of mice. […] The air-pouch fluid samples were analyzed for PGE2 by the same ELISA method used in the in vitro enzyme activity assay mentioned above.
GraphPad Prism 7 software (GraphPad Software, La Jolla, CA) was used to perform the one-way analysis of variance (ANOVA) with post hoc testing, allowing us to examine the significance of the difference in the in vivo activity data between each pair of dose conditions. p < 0.05 was considered statistically significant.

The nature of series [3]: predicted Cmax in human organs from rat organ/plasma ratios. Format: in vivo. The note with it: 50 mg, from rat organ/plasma ratios [56]. The text has this:
In addition, the reported ratios of Cmax values in various organs of rat to Cmax in rat plasma, along with the Cmax values in human plasma, were used to predict the Cmax values in the corresponding organs of human corresponding to the Cmax values in human plasma.

Series [4] has as its system mixed COX-1 and COX-2 (COX-1/2). Briefly: COX (ovine/human) inhibitor screening assay, mixed COX-1 and COX-2. Format: biochemical. The note with it: 100 µM; equal amounts of COX-1 and COX-2. The text has this:
We used a mixture of equal amounts of purified COX-1 and COX-2 proteins and followed the protocol recommended by the vendor.

Series [5] has as its target T1, human mPGES-1. Briefly: mPGES-1 enzyme activity at various GSH concentrations, Lineweaver-Burk plots. Format: biochemical. How it is done: as §1
For series [6] the following is noted: cited from earlier work.
The conditions of series [7]: mouse, in vivo; cited from earlier work.

In the case of `COc1cc(C)c(/C=C/C(C)=C/C=C/C(C)=C/C(=O)O)c(C)c1C` [Acitretin], on human mPGES-1 [1] (10 µM, single concentration), the inhibition at 10 µM was 83%. This compound also came in with an IC50 against human mPGES-1 [1] of 3.5 ± 1.6 µM.
Turning to `CC(C)(C)C(=O)OCOP(=O)(COCCn1cnc2c(N)ncnc21)OCOC(=O)C(C)(C)C` [Adefovir Dipivoxil], the inhibition at 10 µM at human mPGES-1 [1] (10 µM, single concentration) was 19%.
`COc1cc2nc(N(C)CCCNC(=O)C3CCCO3)nc(N)c2cc1OC` (stereo not drawn) [Alfuzosin]: at human mPGES-1 [1] (10 µM, single concentration), the inhibition at 10 µM stood at 22%.
For `CCCCC[C@H](O)/C=C/[C@H]1[C@H](O)CC(=O)[C@@H]1CCCCCCC(=O)O` [Alprostadil], the inhibition at 10 µM at human mPGES-1 [1] (10 µM, single concentration) was 11%.
For `C=C1/C(=C\C=C2/CCC[C@]3(C)[C@@H]([C@H](C)/C=C/[C@@H](O)C4CC4)CC[C@@H]23)C[C@@H](O)C[C@@H]1O` [Calcipotriene], the inhibition at 10 µM on human mPGES-1 [1] (10 µM, single concentration) was 68%. This compound also returned an IC50 on human mPGES-1 [1] of 3 ± 1.1 µM.
In the case of `COCC1=C(C(=O)O)N2C(=O)[C@@H](NC(=O)/C(=N\OC)c3csc(N)n3)[C@H]2SC1` [Cefpodoxime], at human mPGES-1 [1] (10 µM, single concentration), the inhibition at 10 µM is 47%. At human mPGES-1 [1], this compound came in with a half-inhibitory concentration (IC50) of 29.7 ± 6.3 µM.
Consider `CCCCC[C@H](O)/C=C/[C@H]1[C@H](O)CC(=O)[C@@H]1C/C=C\CCCC(=O)O` [Dinoprostone], for which, at human mPGES-1 [1] (10 µM, single concentration), the inhibition at 10 µM turned out to be 4%.
`OCCN(CCO)c1nc(N2CCCCC2)c2nc(N(CCO)CCO)nc(N3CCCCC3)c2n1` [Dipyridamole]: on human mPGES-1 [1] (10 µM, single concentration), the inhibition at 10 µM worked out at 36%.
As for `COc1cc2nc(N3CCN(C(=O)C4COc5ccccc5O4)CC3)nc(N)c2cc1OC` (stereo not drawn) [Doxazosin], the inhibition at 10 µM on human mPGES-1 [1] (10 µM, single concentration) is 21%.
For the compound `C[C@]12CC[C@@H]3c4ccc(OC(=O)N(CCCl)CCCl)cc4CC[C@H]3[C@@H]1CC[C@@H]2OP(=O)(O)O` [Estramustine Phosphate], the inhibition at 10 µM at human mPGES-1 [1] came to 36%.
For `CS(=O)(=O)CCNCc1ccc(-c2ccc3ncnc(Nc4ccc(OCc5cccc(F)c5)c(Cl)c4)c3c2)o1` [Lapatinib], the inhibition at 10 µM on human mPGES-1 [1] (10 µM, single concentration) was 99%. The IC50 on human mPGES-1 [1] is 0.8 µM and ~0.8 µM. For the same compound, the Cmax in series [2] (10 mg, GW572016 ditosylate monohydrate oral suspension, ref Bence et al.[38]) is 0.019 µM; in series [2] (25 mg, GW572016 ditosylate monohydrate oral suspension, ref Bence et al.[38]), 0.04 µM; in series [2] (50 mg, GW572016 ditosylate monohydrate oral suspension, ref Bence et al.[38]), 0.124 µM; in series [2] (100 mg, GW572016 ditosylate monohydrate oral suspension, ref Bence et al.[38]) it was 0.213 µM; in series [2] (175 mg, GW572016 ditosylate monohydrate oral suspension, ref Bence et al.[38]), 0.38 µM; in series [2] (250 mg, GW572016 ditosylate monohydrate oral suspension, ref Bence et al.[38]) it was 0.546 µM. Further, the Cmax was 1.76 µM in series [2] (500 mg, 100-mg and 250-mg tablets, daily oral, ref clinical trial EGF10004); 2.24 µM in series [2] (650 mg, 100-mg and 250-mg tablets, daily oral, ref clinical trial EGF10004); 2.93 µM in series [2] (900 mg, 100-mg and 250-mg tablets, daily oral, ref clinical trial EGF10004); 3.18 µM in series [2] (1000 mg, 100-mg and 250-mg tablets, daily oral, ref clinical trial EGF10004); 6.06 µM in series [2] (1250 mg orally once daily, ref clinical trial NCT00477464); 8.6 µM in series [2] (1500 mg, 6 pills at 250 mg once oral daily, average of 36 data points from 6 subgroups, ref clinical trial NCT00486954 and NCT01138046). Moreover, the Cmax is approximately 1.3 µM in series [3] (read-out: Predicted Cmax (µM) Kidney) and approximately 2 µM in series [3] (read-out: Predicted Cmax (µM) Lung). For the same compound, in the series with air-pouch PGE2 level (carrageenan-treated mice, PO, 24 hours), the “effect on air-pouch PGE2 level” value is “significantly and dose-dependently decreased”. Moreover, the “effectiveness in comparison with celecoxib 50 mg/kg (PO)” value in the series on air-pouch PGE2 level (lapatinib 50 mg/kg PO) was “less effective”. In addition, the “difference in in vivo potency versus 50 mg/kg celecoxib (PO)” value in the series on air-pouch PGE2 level (lapatinib 100 mg/kg PO) is given as “no significant difference”. Further, in series [4], the “inhibition of COX-1/2” value is recorded as “did not significantly inhibit”. Moreover, the “effect on Vmax” value on human mPGES-1 [5] (1 µM lapatinib) is reported as “did not significantly change”. Also, the “mode of inhibition with respect to GSH” value on human mPGES-1 [5] (1 µM lapatinib, GSH at different concentrations) is “competes with co-factor GSH; also recorded: GSH-competitive inhibitor”. On human mPGES-1 [5] (in the presence of 1 µM lapatinib (0.15 ± 0.02 in the absence)), the “y-intercept of Lineweaver-Burk plot (1/Vmax)” value was 0.18 ± 0.02. In addition, the “dose-limiting toxicity (DLT)” value in series [6] (Phase I dose-escalation, up to 7000 mg per day in twice-daily dosing) was “no dose-limiting toxicity”. For the same compound, in series [6] (non-cancer patients), the “adverse effects in phase I clinical trials” value is given as “did not cause any serious adverse effects”.
As to `CC1(C)S[C@@H]2[C@H](NC(=O)COc3ccccc3)C(=O)N2[C@H]1C(=O)O` [Penicillin V Potassium], on human mPGES-1 [1] (10 µM, single concentration), the inhibition at 10 µM came to 36%.
With `C[C@]12C=CC(=O)C=C1CC[C@@H]1[C@@H]2[C@@H](O)C[C@@]2(C)[C@H]1CC[C@]2(O)C(=O)CO` [Prednisolone], at human mPGES-1 [1] (10 µM, single concentration), the inhibition at 10 µM came to 44%.
For `Cc1ccccc1C(=O)Nc1ccc(C(=O)N2CCCC(O)c3cc(Cl)ccc32)c(C)c1` (stereo not drawn) [Tolvaptan], the inhibition at 10 µM on human mPGES-1 [1] (10 µM, single concentration) is 52%. Further, the IC50 on human mPGES-1 [1] worked out at 10.2 ± 2.5 µM.
For `CCOC(=O)[C@H](CCc1ccccc1)N[C@@H](C)C(=O)N1[C@H](C(=O)O)C[C@H]2CCCC[C@@H]21` [Trandolapril], the inhibition at 10 µM at human mPGES-1 [1] (10 µM, single concentration) amounted to 54%. Also, the IC50 against human mPGES-1 [1] was determined as 9 ± 2.3 µM.
Consider `Cc1ccc(-c2cc(C(F)(F)F)nn2-c2ccc(S(N)(=O)=O)cc2)cc1` [celecoxib], for which the toxicity in mice result in series [7] is given as “significant toxicity”.

One may read the inhibition as the change of the read-out against control, counted positive when it falls. For orientation: IC50 means the concentration at which inhibition is half-maximal. A high value points to lower potency. What is called Cmax is the highest concentration seen after dosing.
